The values that follow come from ChEMBL document CHEMBL5465560, “Selectivity Literature for EUbOPEN Chemogenomic Library” (2024).

For test [1], the target named is Dual specificity protein kinase CLK4 (Homo sapiens, UniProt Q9HAZ1). The test can be described thus: Selectivity interaction (LanthaScreen Eu Kinase Binding Assay) EUB0001632a CLK4. The following applies: at 10 µM. For orientation: In TR-FRET formats the signal depends on donor and acceptor labels being close together.
Test [2] addresses MAP/microtubule affinity-regulating kinase 3 (Homo sapiens) (UniProt P27448). The test can be described thus: Selectivity interaction (Kinase panel (Carna Biosciences)) EUB0001542aTs MARK3. The following applies: at 1 µM.
For test [3], the target named is Death-associated protein kinase 3 (Homo sapiens) (UniProt O43293). Nature of the test: Selectivity interaction (SelectScreen profiling (Invitrogen)) EUB0000607a DAPK3. Conditions: at 2 µM.
The target in test [4] is Fibroblast growth factor receptor 4 (Homo sapiens, UniProt P22455). Conditions: at 10 µM.
In test [5] the target is Cyclin-dependent kinase 2 (Homo sapiens, UniProt P24941). The test can be described thus: Selectivity interaction (Kinase panel (DSF assay)) EUB0001558a CDK2.
Test [6] concerns the target Cyclin-dependent kinase-like 1 (Homo sapiens) (UniProt Q00532). The test can be described thus: Selectivity interaction (Kinase panel (DSF assay)) EUB0001558a CDKL1. Background: DSF heats the sample and reads unfolding from a dye or from intrinsic fluorescence.
Test [7] addresses Serine/threonine-protein kinase N2 (Homo sapiens, UniProt Q16513). Nature of the test: Selectivity interaction (KinomeScan (DiscoverX)) EUB0001079a PKN2. Conditions: at 1 µM.
Test [8] deals with Kappa-type opioid receptor (Homo sapiens, UniProt P41145). The test can be described thus: Selectivity interaction (Panel of kinases, GPCRs, ion channels and transporters (enzymatic assay)) EUB0000266bCl OPRK1.
Test [9] addresses Proto-oncogene tyrosine-protein kinase Src (Homo sapiens, UniProt P12931). Nature of the test: Selectivity interaction (KinomeScan (DiscoverX)) EUB0001619a SRC. Conditions: at 1 µM.
Test [10] has as its target Phosphatidylinositol 4-kinase beta (Homo sapiens, UniProt Q9UBF8). Nature of the test: Selectivity interaction (Kinase panel (literature)) EUB0001199aCl PI4KB. Conditions: at 1 µM.
The target of test [11] is Serine/threonine-protein kinase B-raf (Homo sapiens) (UniProt P15056). The test can be described thus: Selectivity interaction (Kinase panel (Eurofins)) EUB0001564a BRAF. The following applies: at 1 µM.
Test [12] addresses T1, Phosphatidylinositol 4,5-bisphosphate 3-kinase catalytic subunit delta isoform (Homo sapiens) (UniProt O00329).
T1 sequence (whole entry): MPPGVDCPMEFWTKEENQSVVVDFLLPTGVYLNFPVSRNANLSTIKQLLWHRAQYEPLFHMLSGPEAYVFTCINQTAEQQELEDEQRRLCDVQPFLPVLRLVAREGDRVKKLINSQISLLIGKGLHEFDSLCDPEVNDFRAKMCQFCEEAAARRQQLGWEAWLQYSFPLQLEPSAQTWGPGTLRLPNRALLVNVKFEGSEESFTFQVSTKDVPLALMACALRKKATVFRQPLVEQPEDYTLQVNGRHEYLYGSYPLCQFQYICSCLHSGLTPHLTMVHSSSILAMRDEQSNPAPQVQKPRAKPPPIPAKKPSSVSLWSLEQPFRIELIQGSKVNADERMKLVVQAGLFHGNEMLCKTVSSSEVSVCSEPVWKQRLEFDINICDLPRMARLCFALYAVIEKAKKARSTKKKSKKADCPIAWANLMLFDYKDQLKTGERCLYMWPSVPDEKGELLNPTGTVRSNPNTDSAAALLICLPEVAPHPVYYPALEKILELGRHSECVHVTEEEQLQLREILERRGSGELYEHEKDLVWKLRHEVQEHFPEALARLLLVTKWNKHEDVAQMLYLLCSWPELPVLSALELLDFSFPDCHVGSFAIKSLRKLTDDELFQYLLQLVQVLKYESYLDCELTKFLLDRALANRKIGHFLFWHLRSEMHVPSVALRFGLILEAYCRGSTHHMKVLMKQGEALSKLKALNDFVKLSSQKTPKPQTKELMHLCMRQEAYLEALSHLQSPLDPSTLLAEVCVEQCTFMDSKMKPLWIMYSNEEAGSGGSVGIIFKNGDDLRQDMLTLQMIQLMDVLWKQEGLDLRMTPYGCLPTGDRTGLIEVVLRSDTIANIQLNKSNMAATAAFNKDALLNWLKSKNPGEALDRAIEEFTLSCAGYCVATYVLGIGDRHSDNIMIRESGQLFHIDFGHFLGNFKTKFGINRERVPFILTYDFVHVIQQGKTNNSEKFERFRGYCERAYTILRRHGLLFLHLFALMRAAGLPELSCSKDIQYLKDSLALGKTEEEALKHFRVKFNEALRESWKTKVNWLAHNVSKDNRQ
Nature of the test: Selectivity interaction (ActivX KiNativ screen (kinase selectivity in THP-1 cell lysates)) EUB0000639a PIK3CD. Format: subcellular. Conditions: lysate, at 1 µM.

Test [13] has as its target T2, Aurora kinase A (Homo sapiens) (UniProt O14965).
T2 sequence (whole entry): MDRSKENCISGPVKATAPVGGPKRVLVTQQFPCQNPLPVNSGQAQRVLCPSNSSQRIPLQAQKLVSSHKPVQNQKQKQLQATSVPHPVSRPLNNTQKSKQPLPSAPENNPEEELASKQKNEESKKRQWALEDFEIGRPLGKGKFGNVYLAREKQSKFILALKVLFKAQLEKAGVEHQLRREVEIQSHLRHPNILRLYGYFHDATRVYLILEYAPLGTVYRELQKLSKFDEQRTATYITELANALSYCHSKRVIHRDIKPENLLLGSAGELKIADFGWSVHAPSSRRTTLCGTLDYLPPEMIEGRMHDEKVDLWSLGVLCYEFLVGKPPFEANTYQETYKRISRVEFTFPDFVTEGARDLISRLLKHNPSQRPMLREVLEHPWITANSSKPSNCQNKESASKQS
The test can be described thus: Selectivity interaction (ActivX KiNativ screen (kinase selectivity in THP-1 cell lysates)) EUB0000639a STK6. The format is subcellular. The following applies: lysate, at 1 µM.

In test [14] the target is Cyclin-dependent kinase 18 (Homo sapiens) (UniProt Q07002). Conditions: at 10 µM.
The subject of test [15] is Receptor-type tyrosine-protein kinase FLT3 (Homo sapiens), P36888 [UNDEFINED MUTATION]. Nature of the test: Selectivity interaction (KinomeScan (DiscoverX)) EUB0001049a FLT3. The following applies: at 1 µM.
Test [16] concerns the target Protein kinase C theta type (Homo sapiens, UniProt Q04759). The test can be described thus: Selectivity interaction (Upstate Kinase Profiler service (Millipore)) EUB0000056c PRKCQ. The following applies: at 1 µM.

Each structure is given as a SMILES string.

Chain of Cyclin-dependent kinase-like 1 (Homo sapiens) (Q00532 whole entry): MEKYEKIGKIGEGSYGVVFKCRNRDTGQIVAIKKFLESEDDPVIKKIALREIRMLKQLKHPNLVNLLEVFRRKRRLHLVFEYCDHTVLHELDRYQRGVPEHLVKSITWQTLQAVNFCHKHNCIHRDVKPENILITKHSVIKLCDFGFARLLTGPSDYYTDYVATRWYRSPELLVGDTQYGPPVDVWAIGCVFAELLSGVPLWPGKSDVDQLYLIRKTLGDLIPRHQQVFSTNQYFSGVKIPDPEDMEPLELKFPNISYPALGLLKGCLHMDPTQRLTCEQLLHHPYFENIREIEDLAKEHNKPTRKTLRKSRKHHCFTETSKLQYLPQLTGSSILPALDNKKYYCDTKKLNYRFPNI
Chain of Receptor-type tyrosine-protein kinase FLT3 (Homo sapiens), P36888 [UNDEFINED MUTATION] (P36888 whole entry, looked up, change not shown): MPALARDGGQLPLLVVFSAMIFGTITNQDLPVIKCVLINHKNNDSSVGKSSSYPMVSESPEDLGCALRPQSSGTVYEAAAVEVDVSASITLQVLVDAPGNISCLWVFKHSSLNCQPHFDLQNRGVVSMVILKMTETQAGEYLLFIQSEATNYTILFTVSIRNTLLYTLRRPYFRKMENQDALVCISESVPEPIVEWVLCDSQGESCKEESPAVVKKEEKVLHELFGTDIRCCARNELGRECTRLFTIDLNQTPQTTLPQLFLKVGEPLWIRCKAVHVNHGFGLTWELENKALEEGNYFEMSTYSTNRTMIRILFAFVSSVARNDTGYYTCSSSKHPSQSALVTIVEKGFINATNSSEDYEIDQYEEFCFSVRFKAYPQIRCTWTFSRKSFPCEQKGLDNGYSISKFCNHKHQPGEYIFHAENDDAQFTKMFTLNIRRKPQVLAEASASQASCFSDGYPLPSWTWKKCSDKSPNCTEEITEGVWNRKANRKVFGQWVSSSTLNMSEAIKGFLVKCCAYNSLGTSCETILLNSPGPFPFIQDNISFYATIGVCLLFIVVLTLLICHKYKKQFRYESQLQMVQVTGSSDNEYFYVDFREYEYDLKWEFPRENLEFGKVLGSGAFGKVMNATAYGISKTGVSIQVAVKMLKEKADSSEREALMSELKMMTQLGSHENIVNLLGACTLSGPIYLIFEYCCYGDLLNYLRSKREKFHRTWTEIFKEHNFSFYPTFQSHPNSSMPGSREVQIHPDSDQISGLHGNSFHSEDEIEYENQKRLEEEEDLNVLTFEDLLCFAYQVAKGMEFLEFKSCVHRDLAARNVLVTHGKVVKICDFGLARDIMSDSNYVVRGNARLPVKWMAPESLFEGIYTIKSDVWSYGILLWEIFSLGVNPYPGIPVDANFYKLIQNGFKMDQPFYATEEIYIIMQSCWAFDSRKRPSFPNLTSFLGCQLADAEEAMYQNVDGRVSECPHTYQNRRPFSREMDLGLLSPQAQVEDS
Chain of Serine/threonine-protein kinase B-raf (Homo sapiens) (P15056 whole entry, canonical isoform): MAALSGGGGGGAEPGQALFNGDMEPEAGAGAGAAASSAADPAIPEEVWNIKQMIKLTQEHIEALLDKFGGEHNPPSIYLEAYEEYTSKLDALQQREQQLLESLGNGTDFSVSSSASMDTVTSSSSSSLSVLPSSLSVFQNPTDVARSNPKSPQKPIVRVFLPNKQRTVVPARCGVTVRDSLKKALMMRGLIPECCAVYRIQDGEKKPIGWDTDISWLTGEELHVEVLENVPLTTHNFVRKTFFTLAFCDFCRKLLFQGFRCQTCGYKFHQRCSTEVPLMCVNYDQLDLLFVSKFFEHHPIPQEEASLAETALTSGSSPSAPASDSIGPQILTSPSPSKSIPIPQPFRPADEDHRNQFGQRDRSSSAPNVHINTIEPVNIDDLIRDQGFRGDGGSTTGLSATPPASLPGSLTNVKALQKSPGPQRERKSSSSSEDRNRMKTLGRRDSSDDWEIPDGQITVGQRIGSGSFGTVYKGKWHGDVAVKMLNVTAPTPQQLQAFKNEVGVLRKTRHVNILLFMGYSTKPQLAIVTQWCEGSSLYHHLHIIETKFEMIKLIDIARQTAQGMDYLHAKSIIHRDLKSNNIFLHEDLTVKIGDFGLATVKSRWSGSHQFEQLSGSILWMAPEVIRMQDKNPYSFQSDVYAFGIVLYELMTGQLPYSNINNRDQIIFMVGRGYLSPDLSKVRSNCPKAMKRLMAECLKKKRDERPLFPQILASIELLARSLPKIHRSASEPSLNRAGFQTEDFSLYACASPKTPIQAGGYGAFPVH
Chain of Kappa-type opioid receptor (P41145 whole entry): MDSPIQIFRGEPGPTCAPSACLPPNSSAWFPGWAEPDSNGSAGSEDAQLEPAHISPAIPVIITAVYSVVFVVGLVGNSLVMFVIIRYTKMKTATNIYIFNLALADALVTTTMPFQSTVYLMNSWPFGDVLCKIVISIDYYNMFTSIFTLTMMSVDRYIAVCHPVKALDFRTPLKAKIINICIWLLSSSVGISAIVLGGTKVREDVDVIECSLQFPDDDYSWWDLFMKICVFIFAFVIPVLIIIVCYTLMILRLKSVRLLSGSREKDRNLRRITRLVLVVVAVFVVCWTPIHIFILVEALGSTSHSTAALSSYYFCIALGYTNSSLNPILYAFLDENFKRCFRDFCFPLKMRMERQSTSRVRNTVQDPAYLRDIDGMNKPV
Chain of Cyclin-dependent kinase 18 (Homo sapiens) (Q07002 whole entry): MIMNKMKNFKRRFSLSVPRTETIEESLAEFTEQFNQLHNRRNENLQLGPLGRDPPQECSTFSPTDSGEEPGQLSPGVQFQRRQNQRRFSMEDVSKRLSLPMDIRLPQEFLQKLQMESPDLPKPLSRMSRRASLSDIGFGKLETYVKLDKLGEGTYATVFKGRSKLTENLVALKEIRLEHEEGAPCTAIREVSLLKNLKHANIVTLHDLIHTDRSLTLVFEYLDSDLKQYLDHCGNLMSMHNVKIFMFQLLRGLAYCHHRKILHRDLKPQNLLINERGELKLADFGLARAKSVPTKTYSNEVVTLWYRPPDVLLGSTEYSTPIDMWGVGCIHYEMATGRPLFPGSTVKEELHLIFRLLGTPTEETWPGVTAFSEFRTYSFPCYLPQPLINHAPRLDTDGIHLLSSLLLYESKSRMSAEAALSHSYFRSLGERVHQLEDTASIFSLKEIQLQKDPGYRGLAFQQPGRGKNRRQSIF
Chain of MAP/microtubule affinity-regulating kinase 3 (Homo sapiens) (P27448 whole entry, looked up): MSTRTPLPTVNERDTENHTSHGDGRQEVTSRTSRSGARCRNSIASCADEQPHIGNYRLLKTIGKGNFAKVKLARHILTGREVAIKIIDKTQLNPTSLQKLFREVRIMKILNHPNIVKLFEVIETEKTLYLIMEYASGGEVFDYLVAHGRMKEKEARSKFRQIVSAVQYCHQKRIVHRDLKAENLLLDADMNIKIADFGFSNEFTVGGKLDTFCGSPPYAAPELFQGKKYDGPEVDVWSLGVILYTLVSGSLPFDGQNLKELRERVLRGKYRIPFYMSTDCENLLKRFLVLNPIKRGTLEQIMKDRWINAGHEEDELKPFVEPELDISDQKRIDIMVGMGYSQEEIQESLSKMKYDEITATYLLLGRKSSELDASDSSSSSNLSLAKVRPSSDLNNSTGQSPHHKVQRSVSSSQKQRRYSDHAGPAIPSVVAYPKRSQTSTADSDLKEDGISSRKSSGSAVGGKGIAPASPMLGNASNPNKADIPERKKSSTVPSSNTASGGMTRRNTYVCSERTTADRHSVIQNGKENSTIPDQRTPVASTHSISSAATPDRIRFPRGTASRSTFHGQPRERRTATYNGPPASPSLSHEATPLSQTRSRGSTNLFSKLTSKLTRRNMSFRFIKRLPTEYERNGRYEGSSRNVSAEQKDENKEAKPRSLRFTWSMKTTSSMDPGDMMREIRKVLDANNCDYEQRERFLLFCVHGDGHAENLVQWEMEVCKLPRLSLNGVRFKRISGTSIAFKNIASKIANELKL
Chain of Serine/threonine-protein kinase N2 (Q16513 whole entry, looked up): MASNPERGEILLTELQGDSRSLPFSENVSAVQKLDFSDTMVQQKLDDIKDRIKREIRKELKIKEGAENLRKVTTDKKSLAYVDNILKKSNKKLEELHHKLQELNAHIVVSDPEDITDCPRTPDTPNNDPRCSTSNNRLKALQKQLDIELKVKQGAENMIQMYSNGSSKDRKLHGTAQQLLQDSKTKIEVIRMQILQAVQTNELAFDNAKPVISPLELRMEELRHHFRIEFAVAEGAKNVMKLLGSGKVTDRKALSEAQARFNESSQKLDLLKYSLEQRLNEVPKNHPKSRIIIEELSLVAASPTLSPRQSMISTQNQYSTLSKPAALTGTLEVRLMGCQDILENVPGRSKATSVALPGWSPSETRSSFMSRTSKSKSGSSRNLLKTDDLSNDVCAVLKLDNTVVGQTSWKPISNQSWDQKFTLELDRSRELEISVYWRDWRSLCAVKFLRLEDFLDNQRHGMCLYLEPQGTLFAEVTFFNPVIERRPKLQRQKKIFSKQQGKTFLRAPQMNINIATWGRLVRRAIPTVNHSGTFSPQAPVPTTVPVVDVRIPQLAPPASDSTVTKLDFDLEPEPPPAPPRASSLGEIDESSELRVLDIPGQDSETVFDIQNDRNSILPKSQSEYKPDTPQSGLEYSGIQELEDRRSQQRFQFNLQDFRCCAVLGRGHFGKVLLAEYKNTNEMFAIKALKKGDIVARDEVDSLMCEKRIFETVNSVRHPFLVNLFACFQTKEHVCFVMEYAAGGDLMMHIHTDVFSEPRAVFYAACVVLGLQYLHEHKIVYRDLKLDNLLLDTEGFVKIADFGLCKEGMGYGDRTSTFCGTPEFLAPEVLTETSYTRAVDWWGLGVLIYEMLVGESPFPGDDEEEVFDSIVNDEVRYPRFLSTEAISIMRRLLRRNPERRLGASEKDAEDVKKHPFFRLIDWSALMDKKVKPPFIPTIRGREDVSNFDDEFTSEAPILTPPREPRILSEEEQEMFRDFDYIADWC

Turning to `Cn1cc(-n2cnc3c(NCc4nc5cc(Cl)c(Cl)cc5[nH]4)nc(N4CCOCC4)nc32)cn1`, the % of inhibition in test [1] worked out at 12.3%. In the case of `Cn1cc(Nc2nccc(N3CC4CCC(C3)N4C(=O)[C@@H]3CC3(F)F)n2)cn1`, the % of inhibition in [2] came out at 50%.

For the molecule `CNC(=O)Nc1ccc(-c2nc(N3CC4CCC(C3)O4)c3cnn(C4CCC5(CC4)OCCO5)c3n2)cc1`, the % of inhibition in test [3] stood at 2%. In turn, `Cc1cc([C@@H](C)Nc2ccccc2C(=O)O)c2nc(N3CCOCC3)cc(=O)n2c1` [AZD-6482] showed a % of control in test [4] of 100%.

As for `CC(C)(O)[C@H](F)CN1Cc2cc(NC(=O)c3cnn4cccnc34)c(N3CCOCC3)cc2C1=O`, the dTM was 0.1 K in test [5] and -0.4 K in test [6]. `Nc1cnc(N2CCc3cc(S(=O)(=O)Nc4c(F)cc(Cl)cc4F)cc(N4CCCC4=O)c32)nc1` [TP-020n] displayed a % of control in test [7] of 100%. In the case of `CCn1c(-c2nc3cc(C(=O)N4CCCC(N)C4)ccc3n2C)cc2ccccc21` (stereo unspecified), the pXC50 in test [8] was over 4 M. For the molecule `N#Cc1cccc(-c2c[nH]c3ncnc(N4CCOCC4)c23)c1`, the % of control in test [9] is 100%.

With `CN1Cc2nccc(-c3cn(C)nc3-c3ccc(F)cc3)c2C1=O`, in test [10], the % of inhibition was -3%. Regarding `CC[C@@H](Nc1c(C#N)c(-c2ccc(-c3cccc(C)c3F)cc2)nc2cnccc12)C(=O)O` [BAY-091], in test [11], the % of inhibition stood at 23.5%. Turning to `CC[C@@H]1[C@H](F)C(=O)N[C@@H]1COc1nccc2cc(C(N)=O)c(OC)cc12` [ZIMLOVISERTIB], the values for the % of inhibition in test [12] and in [13] were -2.6% and 9.2%, respectively.

In turn, `CCN(CC)CCCCNc1ncc2cc(-c3cc(OC)cc(OC)c3)c(NC(=O)NC(C)(C)C)nc2n1` registered a % of control in [14] of 100%. Take `COc1cc(Nc2nc(C)cc(-c3cnn4nc(OC)ccc34)n2)cc(C(F)(F)F)c1`: the % of control in test [15] is 96%.

Take `Cc1ccc(-c2ccc3c(ccc4sc5c(c43)NC[C@@H](C)NC5=O)n2)cn1`: the % of inhibition in test [16] amounted to 27%.
